Experimental data: US6274557A, “Inhibition of nitric oxide synthase by amino acids and dipeptides” (Northwestern University, priority 1999, dated 2001)
Where “and” joins values, the source holds several entries; their conditions need not be identical. Equal values may be shown once. Read-outs that look alike come from different tables or passages of the source. Peptide text beside a SMILES is read from it.

How the values were obtained:
[1] = target: neuronal nitric oxide synthase (nNOS) from bovine brain (Bos taurus, UniProt A0A3Q1M6M2); experiment: Hemoglobin capture assay of nitric oxide formation, nNOS; conditions: for most potent inhibitors (based on isoform inhibition data): dipeptide amides of Table 3; for nNOS/iNOS selectivity / nNOS/eNOS selectivity: Table 2 dipeptides; for nNOS/iNOS selectivity: in favor of nNOS over iNOS; for nNOS/eNOS selectivity: nNOS over eNOS; for time-dependent inhibition of any of the isoforms: nNOS, iNOS and eNOS
Chain of neuronal nitric oxide synthase (nNOS) from bovine brain (A0A3Q1M6M2 entry or part of it): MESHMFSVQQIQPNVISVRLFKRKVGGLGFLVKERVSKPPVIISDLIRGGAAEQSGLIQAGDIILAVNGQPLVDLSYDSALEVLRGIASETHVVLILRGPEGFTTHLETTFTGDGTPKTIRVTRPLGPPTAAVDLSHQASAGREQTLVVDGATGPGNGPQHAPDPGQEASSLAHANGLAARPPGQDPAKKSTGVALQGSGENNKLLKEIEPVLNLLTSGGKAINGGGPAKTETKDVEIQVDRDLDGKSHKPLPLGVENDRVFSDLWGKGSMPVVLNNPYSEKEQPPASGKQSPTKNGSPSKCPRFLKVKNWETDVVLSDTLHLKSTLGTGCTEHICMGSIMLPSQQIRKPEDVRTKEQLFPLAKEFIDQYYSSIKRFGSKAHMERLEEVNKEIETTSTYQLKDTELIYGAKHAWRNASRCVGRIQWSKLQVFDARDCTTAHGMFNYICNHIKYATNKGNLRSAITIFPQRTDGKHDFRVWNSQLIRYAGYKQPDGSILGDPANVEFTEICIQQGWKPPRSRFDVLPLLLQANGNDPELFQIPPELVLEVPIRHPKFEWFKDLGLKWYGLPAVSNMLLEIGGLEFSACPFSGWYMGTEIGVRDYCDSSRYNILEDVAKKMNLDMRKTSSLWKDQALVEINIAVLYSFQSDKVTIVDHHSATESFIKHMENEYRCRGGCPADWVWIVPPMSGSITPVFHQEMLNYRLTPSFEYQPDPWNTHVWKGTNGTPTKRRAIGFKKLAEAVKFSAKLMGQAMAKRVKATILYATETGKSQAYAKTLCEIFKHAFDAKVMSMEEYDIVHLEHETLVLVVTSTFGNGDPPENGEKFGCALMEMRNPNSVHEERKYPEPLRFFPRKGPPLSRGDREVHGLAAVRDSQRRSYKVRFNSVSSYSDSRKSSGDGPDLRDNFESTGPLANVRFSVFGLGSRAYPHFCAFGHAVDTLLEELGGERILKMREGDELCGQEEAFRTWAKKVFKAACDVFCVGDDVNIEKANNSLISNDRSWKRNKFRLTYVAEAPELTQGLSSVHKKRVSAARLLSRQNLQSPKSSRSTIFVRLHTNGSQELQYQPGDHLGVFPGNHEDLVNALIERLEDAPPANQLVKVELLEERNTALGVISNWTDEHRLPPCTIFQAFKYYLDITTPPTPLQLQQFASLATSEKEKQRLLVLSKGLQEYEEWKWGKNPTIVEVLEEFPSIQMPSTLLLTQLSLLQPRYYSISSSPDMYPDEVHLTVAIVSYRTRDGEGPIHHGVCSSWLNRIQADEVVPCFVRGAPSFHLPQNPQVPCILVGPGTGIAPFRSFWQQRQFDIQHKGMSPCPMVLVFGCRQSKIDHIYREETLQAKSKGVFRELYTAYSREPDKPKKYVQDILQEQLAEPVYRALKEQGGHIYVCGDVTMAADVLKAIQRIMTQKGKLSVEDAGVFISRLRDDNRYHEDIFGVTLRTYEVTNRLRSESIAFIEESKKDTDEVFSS
Description: (§1) Nitric oxide formation was measured by using the hemoglobin capture assay. […] The production of nitric oxide by eNOS was measured as described. […] All assays were in a final volume of 600 μL and were initiated with enzyme.
(§2) The reversible inhibition of NOS by the dipeptide analogs was studied under initial rate conditions with the hemoglobin assay as described above. […] With various L-arginine and inhibitor concentrations.

[2] = target: T1, recombinant bovine endothelial nitric oxide synthase (eNOS) (Bos taurus, UniProt P29473); experiment: Hemoglobin capture assay of nitric oxide formation, eNOS; type: biochemical
T1 construct: made in house; host or cells: E. coli
Description: as §1, §2

[3] = target: recombinant murine macrophage nitric oxide synthase (iNOS) (Mus musculus, UniProt P29477); experiment: Hemoglobin capture assay of nitric oxide formation, iNOS; conditions: for iNOS/eNOS selectivity: Table 2 dipeptides
Description: as §1, §2

[4] = read-out: Ki nNOS, Table 2, Dixon plots
[5] = read-out: Ki iNOS, Table 2, Dixon plots, ^a = uncompetitive inhibition

N=C(NCCC[C@@H](NC(=O)[C@H](N)CCCCN)C(N)=O)N[N+](=O)[O-] [D-Lys-D-nitroArg] (HELM PEPTIDE1{[dK].[N=C(NCCC[C@@H](N[*:1])C(=O)[*:2])N[N+](=O)[O-]].[am]}$$$$V2.0)
most potent inhibitors (based on isoform inhibition data) [1]: most potent

N=C(NCCC[C@@H](NC(=O)[C@H](N)CCCN)C(N)=O)N[N+](=O)[O-] [D-Orn-D-nitroArg] (HELM PEPTIDE1{[NCCC[C@@H](N)C(=O)[*:2]].[N=C(NCCC[C@@H](N[*:1])C(=O)[*:2])N[N+](=O)[O-]].[am]}$$$$V2.0)
most potent inhibitors (based on isoform inhibition data) [1]: most potent

N=C(NCCC[C@@H](NC(=O)[C@@H](N)Cc1cnc[nH]1)C(N)=O)N[N+](=O)[O-] [L-His-D-nitroArg] (HELM PEPTIDE1{H.[N=C(NCCC[C@@H](N[*:1])C(=O)[*:2])N[N+](=O)[O-]].[am]}$$$$V2.0)
most potent inhibitors (based on isoform inhibition data) [1]: most potent

N=C(NCCC[C@@H](NC(=O)[C@@H](N)CCCCN)C(N)=O)N[N+](=O)[O-] [L-Lys-D-nitroArg] (HELM PEPTIDE1{K.[N=C(NCCC[C@@H](N[*:1])C(=O)[*:2])N[N+](=O)[O-]].[am]}$$$$V2.0)
most potent inhibitors (based on isoform inhibition data) [1]: most potent

N=C(NCCC[C@H](N)C(=O)N[C@H](CC(N)=O)C(N)=O)N[N+](=O)[O-] [L-nitroArg-D-Asn] (HELM PEPTIDE1{[N=C(NCCC[C@H](N)C(=O)[*:2])N[N+](=O)[O-]].[dN].[am]}$$$$V2.0)
most potent inhibitors (based on isoform inhibition data) [1]: most potent

N=C(NCCC[C@H](N)C(=O)N[C@H](CCC(N)=O)C(N)=O)N[N+](=O)[O-] [L-nitroArg-D-Gln] (HELM PEPTIDE1{[N=C(NCCC[C@H](N)C(=O)[*:2])N[N+](=O)[O-]].[dQ].[am]}$$$$V2.0)
most potent inhibitors (based on isoform inhibition data) [1]: most potent

N=C(NCCC[C@H](N)C(=O)N[C@@H](CCN)C(=O)O)N[N+](=O)[O-] [L-nitroArg-L-Dbu, L-nitroArg-L-2,4-diaminobutanoic acid] (HELM PEPTIDE1{[N=C(NCCC[C@H](N)C(=O)[*:2])N[N+](=O)[O-]].[Dab]}$$$$V2.0)
most potent inhibitors (based on isoform inhibition data) [1]: most potent

N=C(NCCC[C@H](N)C(=O)N[C@@H](CN)C(=O)O)N[N+](=O)[O-] [L-nitroArg-L-Dpr, L-nitroArg-L-2,3-diaminopropanoic acid] (HELM PEPTIDE1{[N=C(NCCC[C@H](N)C(=O)[*:2])N[N+](=O)[O-]].[NC[C@H](N[*:1])C(=O)O]}$$$$V2.0)
most potent inhibitors (based on isoform inhibition data) [1]: most potent

C=CCNC(=N)NCCC[C@H](N)C(=O)O [allyl, N^ω -allyl-L-arginine, reference compound]
Ki [1]: 0.2 µM
Selectivity nNOS/eNOS [1]: 15 and 15.5
Ki ([2]; Table 1): 3.1 µM
Ki [3]: 2.1 µM

N=C(NCCC[C@H](N)C(=O)N[C@@H](Cc1ccccc1)C(=O)O)N[N+](=O)[O-] [compound 1, L-Arg^NO2 L-Phe]
nNOS/iNOS selectivity [1]: 8.9
nNOS/eNOS selectivity [1]: 21.9
time-dependent inhibition of any of the isoforms [1]: None
Ki [1, 4]: 18 µM
Ki ([2]; Table 2, Dixon plots): 395 µM
iNOS/eNOS selectivity [3]: 2.5
Ki [3, 5]: 160 µM

N=C(NCCC[C@H](NC(=O)[C@@H](N)Cc1ccccc1)C(=O)O)N[N+](=O)[O-] [compound 2, L-Phe-L-Arg^NO2] (HELM PEPTIDE1{F.[N=C(NCCC[C@H](N[*:1])C(=O)O)N[N+](=O)[O-]]}$$$$V2.0)
nNOS/iNOS selectivity [1]: 0.66
nNOS/eNOS selectivity [1]: 3.5
time-dependent inhibition of any of the isoforms [1]: None
Ki [1, 4]: 140 µM
Ki ([2]; Table 2, Dixon plots): 490 µM
iNOS/eNOS selectivity [3]: 5.3
Ki [3, 5]: 93 µM

COC(=O)[C@H](Cc1ccccc1)NC(=O)[C@@H](N)CCCNC(=N)N[N+](=O)[O-] [compound 3, L-Arg^NO2 -L-Phe-OMe]
nNOS/iNOS selectivity [1]: 3.2
nNOS/eNOS selectivity [1]: 28.6
Ki [1, 4]: 14 µM
Ki ([2]; Table 2, Dixon plots): 400 µM
iNOS/eNOS selectivity [3]: 8.9
Ki [3, 5]: 45 µM

COC(=O)[C@H](CCCNC(=N)N[N+](=O)[O-])NC(=O)[C@@H](N)Cc1ccccc1 [compound 4, L-Phe-L-Arg^NO2 -OMe] (HELM PEPTIDE1{F.[N=C(NCCC[C@H](N[*:1])C(=O)[*:2])N[N+](=O)[O-]].[CO[*:1]]}$$$$V2.0)
nNOS/iNOS selectivity [1]: 0.55
nNOS/eNOS selectivity [1]: 3.6
Ki [1, 4]: 370 µM
Ki ([2]; Table 2, Dixon plots): 1350 µM
iNOS/eNOS selectivity [3]: 6.6
Ki [3, 5]: 204 µM

N=C(NCCC[C@H](N)C(=O)N[C@@H](Cc1ccccc1)C(=O)OCc1ccccc1)N[N+](=O)[O-] [compound 5, L-Arg^NO2 -L-Phe-OBn]
nNOS/iNOS selectivity [1]: 0.33
nNOS/eNOS selectivity [1]: 2.3
Ki [1, 4]: 55 µM
Ki ([2]; Table 2, Dixon plots): 125 µM
iNOS/eNOS selectivity [3]: 6.9
Ki [3, 5]: 18 µM

N=C(NCCC[C@H](NC(=O)[C@@H](N)Cc1ccccc1)C(=O)OCc1ccccc1)N[N+](=O)[O-] [compound 6, L-Phe-L-Arg^NO2 -OBn] (HELM PEPTIDE1{F.[N=C(NCCC[C@H](N[*:1])C(=O)[*:2])N[N+](=O)[O-]].[c1ccc(CO[*:1])cc1]}$$$$V2.0)
nNOS/iNOS selectivity [1]: 0.41
nNOS/eNOS selectivity [1]: 2.3
Ki [1, 4]: 110 µM
Ki ([2]; Table 2, Dixon plots): 250 µM
iNOS/eNOS selectivity [3]: 5.6
Ki [3, 5]: 45 µM

COC(=O)[C@@H](Cc1ccccc1)NC(=O)[C@@H](N)CCCNC(=N)N[N+](=O)[O-] [compound 7, L-Arg^NO2 -D-Phe-OMe]
nNOS/iNOS selectivity [1]: 1.1
nNOS/eNOS selectivity [1]: 5.7
Ki [1, 4]: 92 µM
Ki ([2]; Table 2, Dixon plots): 525 µM
iNOS/eNOS selectivity [3]: 5.3
Ki [3, 5]: 100 µM

COC(=O)[C@H](Cc1ccccc1)NC(=O)[C@H](N)CCCNC(=N)N[N+](=O)[O-] [compound 8, D-Arg^NO2 -L-Phe-OMe]
nNOS/iNOS selectivity [1]: 22.1
nNOS/eNOS selectivity [1]: 4.8
Ki [1, 4]: 290 µM
Ki ([2]; Table 2, Dixon plots): 1400 µM
iNOS/eNOS selectivity [3]: 0.22
Ki [3, 5]: 6400 µM

COC(=O)[C@@H](Cc1ccccc1)NC(=O)[C@H](N)CCCNC(=N)N[N+](=O)[O-] [compound 9, D-Arg^NO2 -D-Phe-OMe]
nNOS/iNOS selectivity [1]: 43.3
nNOS/eNOS selectivity [1]: 2.5
Ki [1, 4]: 150 µM
Ki ([2]; Table 2, Dixon plots): 375 µM
iNOS/eNOS selectivity [3]: 0.058
Ki [3, 5]: 6500 µM

COC(=O)[C@@H](CCCNC(=N)N[N+](=O)[O-])NC(=O)[C@@H](N)Cc1ccccc1 [compound 10, L-Phe-D-Arg^NO2 -OMe] (HELM PEPTIDE1{F.[N=C(NCCC[C@@H](N[*:1])C(=O)[*:2])N[N+](=O)[O-]].[CO[*:1]]}$$$$V2.0)
nNOS/iNOS selectivity [1]: 83.3
nNOS/eNOS selectivity [1]: 1.7
Ki [1, 4]: 90 µM
Ki ([2]; Table 2, Dixon plots): 150 µM
iNOS/eNOS selectivity [3]: 0.02
Ki [3, 5]: 7500 µM

COC(=O)[C@H](CCCNC(=N)N[N+](=O)[O-])NC(=O)[C@H](N)Cc1ccccc1 [compound 11, D-Phe-L-Arg^NO2 -OMe] (HELM PEPTIDE1{[dF].[N=C(NCCC[C@H](N[*:1])C(=O)[*:2])N[N+](=O)[O-]].[CO[*:1]]}$$$$V2.0)
nNOS/iNOS selectivity [1]: 3
nNOS/eNOS selectivity [1]: 21.3
Ki [1, 4]: 400 µM
Ki ([2]; Table 2, Dixon plots): 8500 µM
iNOS/eNOS selectivity [3]: 7.1
Ki [3, 5]: 1200 µM

CNC(=N)NCCC[C@H](N)C(=O)O [methyl, N^ω -methyl-L-arginine, reference compound]
IC50 [1]: 10 µM

C#CCNC(=N)NCCC[C@H](N)C(=O)O [propargyl, N^ω -propargyl-L-arginine, reference compound]
Ki [1]: 0.43 µM
